Key:
overweight subjects = assay: Second clinical study: LDL particle size pattern and blood chemistry in overweight subjects; format: in vivo, human
Protocol: A second clinical study to determine the effect of the Compound of Formula II on LDL particle size in overweight subjects was performed. Subjects in this study met the following criteria: Non-Diabetic; untreated or diet-treated, with fasting lipids at initial screening and visit 2 (after 4 week run-in): […] Subjects were males with waist circumference greater than 38″ or females with waist circumference greater than 33″. Data was generated in this second study from 181 subjects. […] Of the 28 subjects that remained in the study in the placebo group, there was a net loss of subjects having LDL pattern A.

healthy male subjects = assay: Phase I multiple ascending dose study, 21 days; LDL particle size by GGE and AIM; format: in vivo, human; settings: for predominant LDL particle size / proportion of small LDL particles: 50, 100 and 200 mg
Protocol: Thirty-six healthy male subjects were treated with the compound of Formula II at 50, 100, and 200 mg for 21 days. To determine the lipoprotein particle sizes in the subjects before and after administration of the compound, gradient-gel electrophoresis (GGE) and Airborne Ion Mobility (AIM) methods were used.
GGE was performed essentially as described in Krauss and Burke, J Lipid Res. 23:97-104 (1982) and La Belle, et al., J. Lipid Res. 38 690-700 (1997) as follows:
LDL particle diameters were determined by nondenaturing 2-14% polyacrylamide gradient gel electrophoresis in 0.09 M Tris/0.08 M borate buffer (pH 8.3), 3 mM EDTA at 8-10° C. Samples (whole plasma) were electrophoresed at 40 V for 15 min, then 80 V for 15 min, and then at 125 V for 24 h to allow all particles to run to their size exclusion limits. Gels were stained for protein with Sudan Black and scanned at 555 nm with a Transidyne RFT densitometer. Particle sizes were calculated from a calibration curve using a high molecular weight reference protyin mixture (Pharmacia Biotech., Piscataway, N.J.), 380 Å latex beads (Duke Scientific Corp., Palo Alto, Calif.) and lipoprotein calibrators that are frozen at −80° C. and included on each gel run. Plasma samples, stored at −80° C. and used as controls for gradient gel analysis procedures, were run in duplicate on each gel. Particle size of LDL peaks in the controls were measured within ±2 Å (coefficient of variation, +1%).
AIM was performed essentially as described in Caulfield, et al., Clin. Chem. 54:1307-1316 (2008), generally as follows:
Serum samples or controls were briefly mixed by vortex mixing, then 5 μl of sample or control was mixed with 20 μl of an albumin removal reagent [7.5 g/L Reactive green 19 dextran (RGD), Sigma-Aldrich; 2.5 g/L dextran sulfate, Sigma-Aldrich; and 0.5 g/L EDTA, Spectrum Chemicals] and incubated on ice for 15 minutes. After incubation, the sample mixture was overlaid on 200 μl deuterium oxide (Medical Isotopes) in a 42.2 ultracentrifuge tube (Beckman Coulter). The samples were ultracentrifuged at 10° C. for 135 min at 223 000 g (42 000 rpm), and then the top 85 μl (i.e., the lipid fraction) of the sample was removed. The samples were diluted 1:800 for HDL analysis using 25 mmol/L ammonium acetate, 0.5 mmol/L ammonium hydroxide, pH 7.4. For LDL analysis, samples were diluted 1:200 with the same diluent containing 5 μg/mL dextran sulfate to help prevent LDL particles from sticking to the capillary surfaces. Final dilutions were made in deep-well 96-well plates and placed in a Leap HTLC Pal autosampler (Eksigent) with the cooled stack maintained at 6° C.
The autosampler was connected to the electrospray generator (Model 3480; TSI) via methyl-deactivated silica capillary (50 μm i.d.; SGE). Flow was introduced by nano-LC pumps (Eksigent) running a mobile phase of 25 mmol/L ammonium acetate, 0.5 mmol/L ammonium hydroxide, pH 7.4. By means of a capillary metal union (Upchurch Scientific), an autosampler injected 10 μl sample at 6 μl/min into a transfer capillary (methyl-deactivated, SGE, 50 μm, 33 cm long). High voltage (2.1 kV) was applied to the metal capillary union located 33 cm upstream of the electrospray unit. The electrospray Taylor cone was monitored visually and amperometrically to ensure stability. After the sample had filled the capillary and reached the electrospray chamber, the flow was decreased to 200 nL/min and the data recording process was started. The gas (containing approximately 5% CO2) flowing into the electrospray chamber was regulated at 1.6 L/min. The electrosprayed particles passed through a particle-charge neutralizing chamber and then entered the differential mobility analyzer (DMA). Se, e.g., U.S. Pat. No. 7,259,018. Scan time was 2 min and covered a particle range of 17.2 to 542.0 Å. […]

human subjects [1] = assay: Effect on cholesterol synthesis in human subjects after 21 days; format: in vivo
Protocol: A series of experiments were performed to determine the effect of Compound II on cholesterol synthesis. Compound II was administered to human subjects and the effect on cholesterol ester, acyl-coenzyme A:cholesterol acyltransferase (ACAT) and Lecithin-cholesterol acyltransferase (LACAT) was determined after 21 days. […] The effect of treatment appeared similar between ACAT- and LCAT-derived cholesterol esters, indicating a reduction in cholesterol substrate.

C57BL/6 mice = assay: Intestinal cholesterol absorption by fecal dual isotope ratio method; format: in vivo
Protocol: This study was designed to examine the effect of Compound II on intestinal cholesterol absorption in mice using the fecal dual isotope ratio method. Eight-week-old male C57BL/6 mice were fed standard mouse chow (control) with no added cholesterol (Harlan Teklad diet T.8604) ad libitum. Mice were randomized into five groups: 1) control, water gavaged daily; 2) compound II gavaged daily (in water) at a dose of 3 mg/kg; 3) compound II gavaged daily (in water) at a dose of 10 mg/kg; 4) ezetimibe gavaged daily (in corn oil) at a dose of 5 mg/kg; 5) compound II fed daily as diet admix at a dose of approximately 15 mg/kg. Mice were housed individually and monitored daily for food consumption and body weight. Following eight days of feeding/drug administration, (and 1 hour following gavage of drug), nonfasted, unanesthetized animals were bled and plasma was isolated and flash-frozen at −80° C. for shipment and measurement of concentrations of Compound II and its metabolites. The following day (day 9), mice were gavaged with drug or control. One hour later, each mouse was gavaged with MCT oil containing [^14C]cholesterol and [^3H]sitostanol. Mice were housed individually in metabolic cages and ad libitum feeding and daily gavage of each drug was continued. Feces were collected daily from each animal for a period of 4 days. For each individual mouse, the 4-day feces were pooled, dried, saponified, extracted and counted.
Intestinal cholesterol absorption in age- and gender-matched C57BL/6 mice was determined by the fecal dual isotope ratio method. […] See, FIG. 10. […] Statistical analysis between groups was assessed by unpaired Student's t-test. Statistical significance was defined as a two-tailed probability of less than 0.05.

human subjects [2] = assay: Absorption of phytosterols (markers of cholesterol absorption) in human subjects, day 21; format: in vivo; settings: oral daily dose, day 21, FIG. 11
Protocol: In another experiment, human subjects received an oral dose of Compound II at day 1 and daily thereafter and the effect of the drug was assessed on day 21. Phytosterols are poorly absorbed from diet, but are absorbed proportionally with dietary cholesterol and thus serve as good markers of cholesterol absorption.

[3] = Atorvastatin 20 mg, Week 0 (before treatment)
[4] = 21 days, listed as compound of Formula II
[5] = phase I multiple ascending doses samples, FIG. 1
[6] = MBX-8025 50 mg, Week 0 (before treatment)
[7] = MBX-8025 100 mg, Week 0 (before treatment)

SMILES: CC(C)c1c(C(=O)Nc2ccccc2)c(-c2ccccc2)c(-c2ccc(F)cc2)n1CC[C@@H](O)C[C@@H](O)CC(=O)O [Atorvastatin, reference compound]
- number of subjects having LDL Pattern A (overweight subjects; [3]): 9
- number of subjects having LDL Pattern B (overweight subjects; [3]): 15
- number of subjects having LDL Pattern I (overweight subjects; [3]): 5
- number of subjects having LDL Pattern A (overweight subjects; Atorvastatin 20 mg, Week 4): 12
- number of subjects having LDL Pattern B (overweight subjects; Atorvastatin 20 mg, Week 4): 10
- number of subjects having LDL Pattern I (overweight subjects; Atorvastatin 20 mg, Week 4): 6
- number of subjects having LDL Pattern A (overweight subjects; Atorvastatin 20 mg, Week 8): 13
- number of subjects having LDL Pattern B (overweight subjects; Atorvastatin 20 mg, Week 8): 13
- number of subjects having LDL Pattern I (overweight subjects; Atorvastatin 20 mg, Week 8): 3
- HDL levels (overweight subjects; FIG. 6): no effect

SMILES: CCOC(COc1ccc(C(F)(F)F)cc1)CSc1ccc(OCC(=O)O)c(C)c1 (centres unmarked) [Compound II]
- shift of LDL subclass pattern (healthy male subjects; 50, 100 and 200 mg dosage, day 21 vs day 1, GGE): from LDL Pattern B or I to LDL Pattern A
- predominant LDL particle size (healthy male subjects; 21 days, listed as compound II): increased
- proportion of small LDL particles (healthy male subjects; 21 days, listed as compound II): lowered
- predominant LDL particle size (healthy male subjects; [4]): effectively increased
- proportion of small LDL particles (healthy male subjects; [4]): decreasing the amount of smaller LDL particles
- predominant LDL particle size (healthy male subjects; 21 days, listed as drawing 12): effective in improving
- VLDL particle size (healthy male subjects; 21 days): did not affect
- LDL particle distributions (healthy male subjects; 21 days, by dose): did affect LDL particle distributions in dose dependent fashion
- Apolipoprotein B (healthy male subjects; [5]): significantly lowered
- LDL-cholesterol (healthy male subjects; [5]): significantly lowered
- LDL pattern results compared with control group treated with Atorvastatin (overweight subjects; 50 mg and 100 mg): superior
- number of subjects having pattern A (in words) (overweight subjects; 100 mg): increase
- number of subjects having pattern B (in words) (overweight subjects; 100 mg): large decrease
- Apo B-100 (overweight subjects; FIG. 6): reduced
- HDL levels (overweight subjects; FIG. 6): increased
- LDL (overweight subjects; FIG. 6): reduced
- total cholesterol (overweight subjects; FIG. 6): reduced
- triglycerides (overweight subjects; FIG. 6): reduced
- percentage of individuals having LDL pattern A over time (overweight subjects; FIG. 7): went up dramatically
- percentage of individuals having LDL pattern B over time (overweight subjects; FIG. 8): went down dramatically
- number of subjects having LDL Pattern A (overweight subjects; [6]): 8
- number of subjects having LDL Pattern B (overweight subjects; [6]): 13
- number of subjects having LDL Pattern I (overweight subjects; [6]): 7
- number of subjects having LDL Pattern A (overweight subjects; MBX-8025 50 mg, Week 4): 24
- number of subjects having LDL Pattern B (overweight subjects; MBX-8025 50 mg, Week 4): 3
- number of subjects having LDL Pattern I (overweight subjects; MBX-8025 50 mg, Week 4): 0
- number of subjects having LDL Pattern A (overweight subjects; MBX-8025 50 mg, Week 8): 25
- number of subjects having LDL Pattern B (overweight subjects; MBX-8025 50 mg, Week 8): 2
- number of subjects having LDL Pattern I (overweight subjects; MBX-8025 50 mg, Week 8): 2
- number of subjects having LDL Pattern A (overweight subjects; [7]): 6
- number of subjects having LDL Pattern B (overweight subjects; [7]): 20
- number of subjects having LDL Pattern I (overweight subjects; [7]): 7
- number of subjects having LDL Pattern A (overweight subjects; MBX-8025 100 mg, Week 4): 25
- number of subjects having LDL Pattern B (overweight subjects; MBX-8025 100 mg, Week 4): 1
- number of subjects having LDL Pattern I (overweight subjects; MBX-8025 100 mg, Week 4): 4
- number of subjects having LDL Pattern A (overweight subjects; MBX-8025 100 mg, Week 8): 25
- number of subjects having LDL Pattern B (overweight subjects; MBX-8025 100 mg, Week 8): 2
- number of subjects having LDL Pattern I (overweight subjects; MBX-8025 100 mg, Week 8): 2
- Lanosterol (cholesterol synthesis intermediate) in blood (human subjects [1]; FIG. 9): decreased in a dose-dependent fashion
- desmosterol (cholesterol synthesis intermediate) in blood (human subjects [1]; FIG. 9): decreased in a dose-dependent fashion
- lathosterol (cholesterol synthesis intermediate) in blood (human subjects [1]; FIG. 9): decreased in a dose-dependent fashion
- cholesterol concentrations (ACAT- and LCAT-derived cholesterol esters) (human subjects [1]; after 21 days): decreased cholesterol concentrations in a dose-dependent fashion
- reduction in cholesterol absorption versus control (printed as negative change) (C57BL/6 mice; admix to diet, approximate dose 15 mg/kg/d, p<0.0006): −45%
- change in cholesterol absorption versus control (C57BL/6 mice; gavage, 3 mg/kg/d, no significant change): −8%
- reduction in cholesterol absorption versus control (C57BL/6 mice; gavage, 10 mg/kg/d, significant): 29.4%
- Stigmasterol (human subjects [2]): not significantly affected
- campesterol (human subjects [2]): significantly decreased
- β-sitosterol (human subjects [2]): significantly decreased

SMILES: O=C1[C@H](CC[C@H](O)c2ccc(F)cc2)[C@@H](c2ccc(O)cc2)N1c1ccc(F)cc1 [ezetimibe, reference compound]
- reduction in cholesterol absorption (C57BL/6 mice; gavage in corn oil, 5 mg/kg/d, positive control, p<0.0000005): 56.4%

Source: patent US11007162B2, “Methods of reducing small, dense LDL particles” (CymaBay Therapeutics, Inc., priority 2008, dated 2021)
